Results as given in ChEMBL document CHEMBL1201862, “PubChem BioAssay data set” (2004).
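Compound exposure: 48 hours, 5 concentrations, 96-well plates. Abbreviation: GI50, concentration required for 50% inhibition of growth.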 Activity calls are given as the source filed them. Rule as the data show it: active = GI50 up to about 1.1 µM and inactive = higher.

Tests used:
Assay in all cases: NCI-60 cell line screen, 48 h
Hs-578T = test system: Hs-578T
T47D = test system: T47D
MDA-MB-435 = test system: MDA-MB-435
PC-3 = test system: PC-3
MDA-MB-231 = test system: MDA-MB-231
MDA-N = test system: MDA-N
DU-145 = test system: DU-145
786-0 = test system: 786-0
BT-549 = test system: BT-549

Measured: GI50

CCCCSCCC(N)P(=O)(O)O (stereo not drawn)
inactive: Hs-578T > 100 µM | T47D > 100 µM | MDA-MB-435 > 100 µM | PC-3 > 100 µM | MDA-MB-231 > 100 µM | MDA-N > 100 µM | DU-145 > 100 µM

O=NN(CC1(O)OCC(O)C(O)C1O)C(Cc1c[nH]c2ccccc12)C(=O)O (stereo not drawn)
inactive: 786-0 > 100 µM

c1ccc2c(NCCCCCCCCNc3cccc4ccccc34)cccc2c1
inactive: 786-0 23.4 µM

CC(=O)Oc1ccccc1[C@H]1CC(=O)C[C@H](c2ccccc2OC(C)=O)C12C(=O)c1ccccc1C2=O
inactive: Hs-578T 27.7 µM | T47D 40.2 µM | MDA-MB-435 14.7 µM | PC-3 17.5 µM | BT-549 24.9 µM | MDA-MB-231 27.1 µM | MDA-N 16 µM | DU-145 35.4 µM

C=C1C2=C(CCCC2)C(=O)OC12CCCCC2
inactive: 786-0 > 100 µM

O=C(OCCO)C1CC2CC1C1(C2)OCCO1 (stereo not drawn)
inactive: 786-0 > 100 µM

COc1ccc(CCn2nccc2C)cc1
inactive: Hs-578T > 100 µM | T47D 74.1 µM | MDA-MB-435 > 100 µM | PC-3 > 100 µM | BT-549 > 100 µM | MDA-MB-231 > 100 µM | MDA-N > 100 µM | DU-145 > 100 µM

COc1ccccc1-c1cc(O)c2cc(C)cnc2n1
inactive: Hs-578T 43.4 µM | T47D 63.4 µM | MDA-MB-435 3.8 µM | BT-549 45.5 µM | MDA-MB-231 67.3 µM | DU-145 47.9 µM
